Consider two molecules from EP4643657A1, “COMPOSITIONS CONTAINING SHORT-CHAIN FATTY ACID, METHODS OF USE, AND METHODS OF MAKING THEREOF” (Velocity Life Sciences, LLC, priority 2024, dated 2025).

The structures appear in SMILES notation.

The conditions of series [1]: given intravenously; plasma; cited from earlier work.
Series [2] in a line: Visual-analog scales of affect, randomized three-arm crossover trial (Example 5). Format: in vivo, human. The settings on record: Mean±SD. Set-up: Mood AUC / Alertness AUC / Well-being AUC / Calm and Relaxed AUC / Stressed and Anxious AUC: unit not given here. As to the method:
Experimental Design: This was a randomized, three-arm, crossover trial in which participants visited the laboratory on four occasions (one screening visit and three testing visits). […] Written informed consent was obtained from all subjects prior to enrollment. The study was retrospectively registered on clinicaltrials.gov (#NCT06700785). This study was conducted at The Center for Applied Health Sciences, a contract research organization located in Northeast Ohio. […] VAS assessed subjective ratings of state of well-being, calm and relaxed, stressed and anxious, mood, motivation to perform tasks, level of alertness, and ability to concentrate and were anchored with "Worst possible", "Lowest possible", "Strongly Disagree", or "Best Possible", "Highest Possible", "Strongly Agree". […] Statistical Analyses: Normality was assessed using Q-Q plot and Shapiro-Wilks test. Severe non-normal measures were normalized using log (In) transformation. Serum butyrate concentrations, subjective ratings of affect, and vitals over time between treatments were analyzed using a mixed effects factorial ANOVA . Tukey post hocs were applied if significant main effects/interactions were observed. […] Effect sizes are reported as Cohen's d (with 0.2 considered a small effect, 0.5 considered a medium effect, and 0.8 considered a large effect). All analyses were conducted in GraphPad Prism v.10.4.0.

The conditions of series [3]: male, human, in vivo.
Where [4] appears, read: 0 min (prior to ingestion), 100-mm VAS.
[5] abbreviates: 0-210 min, 786 mg of butyric acid oral.
The mark [6] stands for this setting: 45 min post ingestion, 786 mg of butyric acid oral, 100-mm VAS.
Where [7] appears, read: 90 min post ingestion, 786 mg of butyric acid oral, 100-mm VAS.
Where [8] appears, read: 150 min post ingestion, 786 mg of butyric acid oral, 100-mm VAS.
Setting [9] is: 210 min post ingestion, 786 mg of butyric acid oral, 100-mm VAS.

In the case of `CCCC(=O)O` [Butyric Acid, butanoic acid], the half-life entry in series [1] is listed as “about six”.
With `CCCC(=O)OCC(COC(=O)CCC)OC(=O)CCC` [TB, propane-1,2,3-triyl tributanoate], in series [2] (setting [4]), the “Ability to concentrate (VAS)” value is listed as 6.9 ± 1.7 cm; the Alertness is reported as 6.7 ± 1.7; the “Calm and Relaxed” value amounted to 7.5 ± 1.2 cm; the Mood is recorded as 7.1 ± 1.5^# cm. Moreover, in series [2] (setting [4]), the “Stressed and Anxious” value is 2.7 ± 2.0 cm; the Well-being is given as 7.4 ± 1.2 cm. In series [2] (setting [5]), the “Alertness AUC” value is reported as 1481 ± 293; the “Calm and Relaxed AUC” value is given as 1571 ± 245; the “Concentration AUC” value is listed as 1504 ± 315; the “Mood AUC” value was 1600 ± 214. Also, the “Well-being AUC” value in series [2] (setting [5]) is listed as 1588 ± 234. The “Stressed and Anxious AUC” value in series [2] (0-210 min, 786 mg of butyric acid oral, raw untransformed data) stood at 518 ± 408. In series [2] (setting [6]), the “Ability to concentrate (VAS)” value turned out to be 7.1 ± 1.6 cm; the Alertness is given as 7.0 ± 1.5; the “Calm and Relaxed” value is 7.2 ± 1.4 cm; the Mood is reported as 7.5 ± 1.1^# cm. Also, in series [2] (setting [6]), the “Stressed and Anxious” value turned out to be 2.7 ± 2.2 cm; the Well-being was found to be 7.6 ± 1.1 cm. Besides, in series [2] (setting [7]), the “Ability to concentrate (VAS)” value was determined as 6.9 ± 1.6 cm; the Alertness turned out to be 6.9 ± 1.4; the “Calm and Relaxed” value was 7.5 ± 1.3 cm; the Mood is 7.6 ± 1.0^# cm. For the same molecule, in series [2] (setting [7]), the “Stressed and Anxious” value stood at 2.4 ± 1.9 cm; the Well-being came out at 7.6 ± 1.2 cm. In addition, in series [2] (setting [8]), the Alertness is on record as 7.1 ± 1.6^#; the “Calm and Relaxed” value turned out to be 7.5 ± 1.2 cm; the Concentration is 7.4 ± 1.4^α cm; the Mood came out at 7.7 ± 1.0 cm. Further, in series [2] (setting [8]), the “Stressed and Anxious” value turned out to be 2.4 ± 2.0 cm; the Well-being amounted to 7.5 ± 1.1 cm. Also, in series [2] (setting [9]), the “Ability to concentrate (VAS)” value is 7.5 ± 1.6 cm; the Alertness turned out to be 7.5 ± 1.5; the “Calm and Relaxed” value is on record as 7.9 ± 1.2 cm; the Mood is 8.0 ± 1.0 cm. Besides, in series [2] (setting [9]), the “Stressed and Anxious” value worked out at 2.3 ± 2.2 cm; the Well-being was 7.8 ± 1.2 cm. Further, the “Perform Tasks” value in series [2] (motivation to perform tasks, 0 min (prior to ingestion), 100-mm VAS) was determined as 6.9 ± 1.6 cm. Also, the “Perform Tasks AUC” value in series [2] (motivation to perform tasks, 0-210 min, 786 mg of butyric acid oral) is recorded as 1505 ± 331. For the same molecule, the “Perform Tasks” value in series [2] (motivation to perform tasks, 45 min post ingestion, 786 mg of butyric acid oral, 100-mm VAS) came out at 7.2 ± 1.3 cm. Moreover, the “Perform Tasks” value in series [2] (motivation to perform tasks, 90 min post ingestion, 786 mg of butyric acid oral, 100-mm VAS) worked out at 7.1 ± 1.7 cm. In addition, the “Perform Tasks” value in series [2] (motivation to perform tasks, 150 min post ingestion, 786 mg of butyric acid oral, 100-mm VAS) is reported as 7.2 ± 1.8 cm. Further, the “Perform Tasks” value in series [2] (motivation to perform tasks, 210 min post ingestion, 786 mg of butyric acid oral, 100-mm VAS) came to 7.3 ± 1.9 cm. In series [3] (0 min), the “Serum Butyrate” value is 0.41 ± 0.71 µg/mL. In series [3] (po, 786 mg), the “Serum Butyrate AUC0-210” value was found to be 108 ± 190 and the “Serum Butyrate Cmax” value was determined as 910 ± 1650 ng/mL.
